These results are taken from patent publication US7741520B2, “Sulfonanilide analogs as selective aromatase modulators (SAMs)” (The Ohio State University Research Foundation, priority 2006, dated 2010).

For series [1], the system named is aromatase activity in SK-BR-3 breast cancer cells. As to the kind of experiment: Aromatase tritiated water-release assay in SK-BR-3 cell lines (first compound set). The settings on record: SK-BR-3 cells, 24 h treatment; five concentrations, each in triplicate; read-out: IC50 (μM), suppression of aromatase activity in SK-BR-3 breast cancer cells. It is filed as cell-based, human. The protocol:
Aromatase Tritiated Water-Release Assay in SK-BR-3 Cell Lines. SK-BR-3 cells were obtained from ATCC (Rockville, Md.). Cell cultures were maintained in phenol red-free custom media (MEM, Earle's salts, 1.5× amino acids, 2× nonessential amino acids, L-glutamine, 1.5× vitamins, Gibco BRL) supplemented with 10% fetal bovine serum (FBS), 2 mM L-glutamine, and 20 mg/L gentamycin. Measurement of aromatase enzyme activity was based on the tritium water release assay. 24 Cells in 100 mm Petri dish were treated with 0.1% DMSO (control), and inhibitors at the indicated concentrations. After 24 h, the media was changed and the cells were incubated with 100 nM [1â-3H]-androst-4-ene-3,17-dione ([…]) for 3 h. Subsequently, the reaction mixture was removed, and proteins were precipitated using 10% trichloroacetic acid at 42° C. for 20 min. After a brief centrifugation, the media was extracted three times with an equal amount of chloroform to extract unused substrate and further dextran-treated charcoal. After centrifugation, a 250-μL aliquot containing the product was counted in 5 mL of liquid scintillation mixture. Results were corrected for blanks and for the cell contents of culture flasks, and results were expressed as picomoles of 3H2O formed per hour incubation time per million live cells (pmol/h/10^6 cells). To determine the amount of cells in each flask, the cells were trypsinized and analyzed using the diphenylamine DNA assay adapted to a 96-well plate. (Natarajan N.; Shambaugh, G. E., 3rd; Elseth K. M.; Haines G. K.; Radosevich J. A. Adaptation of the diphenylamine (DPA) assay to a 96-well plate tissue culture format and comparison with the MTT assay. Biotechniques 1994, 17, 166-171; incorporated herein by reference). IC50 sigmoidal dose-response data were analyzed with Microsoft Excel and the Graphpad Prism (Version 3.0) program.

Series [2] relates to CYP19 mRNA expression in SK-BR-3 cells. As to the kind of experiment: CYP19 mRNA expression by real-time RT-PCR in SK-BR-3 cells. It is filed as cell-based, human. The conditions noted are these: 5 μM, 24 h (FIG. 14). The protocol: RNA Extraction. Total RNA was isolated using the TRIzol reagent according to the manufacturer's protocol. Total RNA pellets were dissolved in DNase- and RNase-free water and quantitated using a spectrophotometer. The quality of RNA samples was determined by electrophoresis through agarose gels and staining with ethidium bromide; the 18S and 28S rRNA bands were visualized under ultraviolet light.
(§1) cDNA Synthesis. Isolated total RNA (2 μg) was treated with DNase I Amplification grade, according to the recommended protocol to eliminate any DNA before reverse transcription. Treated total RNA was denatured at 65° C. for 5 min in the presence of 2.5 ng/μL random hexamers and 0.5 mM dNTP mix. The samples were snap-cooled on ice and centrifuged briefly. Complementary DNA (cDNA) was synthesized using Superscript II reverse transcriptase according to the recommended protocol. Briefly, the reactions were conducted in the presence of 1× First-Strand Buffer and 20 mM DTT at 42° C. for 50 min and consequently inactivated at 70° C. for 15 min. The cDNA generated was used as a template in realtime PCR reactions.
Real-Time PCR. Real-time PCR was performed using the Opticon 2 system from MJ Research (Waltham, Mass.). For the CYP19 total gene the PCR reaction mixture consisted of Taqman Universal PCR Master Mix (Applied Biosystems), 600 nM of CYP19 primer (sense: 5′-TGTCTCTTTGTTCTTCATGCTATTTCTC-3′ (SEQ ID NO: 1); antisense: 5′-TCACCAATAACAGTCTGGATTTCC-3′) (SEQ ID NO: 2); 250 nM Taqman probe (6FAM 5′-TGCAAAGCACCCTAATGTTGAAGAGGCAAT-3′TAMRA) (SEQ ID NO: 3) (Invitrogen), 18S rRNA (Applied Biosystems, Foster City, Calif.), and 2.0 μL of each RT sample in a final volume of 20 μL. The Taqman probe was designed to anneal to a specific sequence of the aromatase gene between the forward and the reverse primers. Cycling conditions were 50° C. for 2 mm and 95° C. for 10 mm, followed by 50 cycles at 95° C. for 15 s and 60° C. for 1 mm.
RNA extraction. Total RNA was isolated using the TRIzol reagent according to the manufacturer's protocol. Total RNA pellets were dissolved in DNase, RNase-free water and quantitated using a spectrophotometer. The quality of RNA samples was determined by electrophoresis through agarose gels and staining with ethidium bromide; the 18S and 28S rRNA bands were visualized under ultraviolet light.
as §1, with “synthesis.” for “Synthesis.”, “real-time” for “realtime”
Real-time PCR. Real-time PCR was performed using the Opticon™ 2 system from MJ Research (Waltham, Mass.). For the CYP19 total gene the PCR reaction mixture consisted of Taqman® Universal PCR Master Mix (Applied Biosystems), 600 nM of CYP19 primer (sense: 5′-TGTCTCTTTGTTCTTCATGCTATTTCTC-3′ (SEQ ID NO: 1); antisense: 5′-TCACCAATAACAGTCTGGATTTCC-3′) (SEQ ID NO: 2); 250 nM Taqman probe (6FAM 5′-TGCAAAGCACCCTAATGTTGAAGAGGCAAT-3′TAMRA) (SEQ ID NO: 3) (Invitrogen), and 2.0 μL of each cDNA sample in a final volume of 20 μL. […]

In turn, `CCCOc1cc([N+](=O)[O-])ccc1NS(C)(=O)=O` [Compound 9, N-(2-Propyloxy-4-nitrophenyl)methanesulfonamide] gave a melting point of 117 to 119 °C. For the same compound, the IC50 in series [1] stood at 2.51 µM. The corresponding values for `CC(C)Oc1cc([N+](=O)[O-])ccc1NS(C)(=O)=O` [Compound 10, N-(2-Isopropyloxy-4-nitrophenyl)methanesulfonamide] are 128 to 131 °C and 5.87 µM. The corresponding values for `CCCCCCCCCOc1cc([N+](=O)[O-])ccc1NS(C)(=O)=O` [Compound 14, N-(2-Nonyloxy-4-nitrophenyl)methanesulfonamide] are 70 to 71 °C and 0.91 µM. The corresponding values for `CCCCCCOc1cc([N+](=O)[O-])ccc1NS(C)(=O)=O` [Compound 15, N-(2-Hexyloxy-4-nitrophenyl)methanesulfonamide] are 74 to 76 °C and 2.67 µM. Take `COc1cc([N+](=O)[O-])ccc1NS(C)(=O)=O` [Compound 16, N-(2-Methoxy-4-nitrophenyl)methanesulfonamide]: the melting point lay within 128 to 130 °C. Further, the IC50 in series [1] is more than 25 µM. `CCCOc1cc([N+](=O)[O-])ccc1N(C)S(C)(=O)=O` [Compound 18, N-Methyl-N-(2-propyloxy-4-nitrophenyl)methanesulfonamide] returned a melting point of 66 to 69 °C. Besides, the IC50 in series [1] was 0.76 µM. In the same order, the values of `CC(C)Oc1cc([N+](=O)[O-])ccc1N(C)S(C)(=O)=O` [Compound 19, N-Methyl-N-(2-isopropyloxy-4-nitrophenyl)methanesulfonamide] are 99 to 100 °C and 2.81 µM. The corresponding values for `CCCCCCCCCOc1cc([N+](=O)[O-])ccc1N(C)S(C)(=O)=O` [Compound 23, N-Methyl-N-(2-nonyloxy-4-nitrophenyl)methanesulfonamide] are 83 to 84 °C and 3.96 µM. The corresponding values for `CCCCCCOc1cc([N+](=O)[O-])ccc1N(C)S(C)(=O)=O` [Compound 24, N-Methyl-N-(2-hexyloxy-4-nitrophenyl)methanesulfonamide] are 44 to 46 °C and 4.49 µM. In the case of `COc1cc([N+](=O)[O-])ccc1N(C)S(C)(=O)=O` [Compound 25, N-Methyl-N-(2-methoxy-4-nitrophenyl)methanesulfonamide], the melting point was in the range of 125 to 126 °C. In addition, the 50% inhibitory concentration (IC50) in series [1] was more than 25 µM. As for `CS(=O)(=O)Nc1ccc([N+](=O)[O-])cc1OCCc1ccccc1` [Compound 37b, N-(2-phenylethoxy 4-nitrophenyl) methanesulfonamide], the CYP19 gene expression entry in series [2] is reported as “not affect the CYP19 gene expression”.

A word on the IC50: it is the concentration needed to halve the response being measured. What is called melting point is the temperature, or range, at which the solid turns liquid.
